Source: patent publication US20120022048A1, “Anti-proliferative substituted pyrazolo[3,4-d]pyrimidines derivatives (SPP) to inhibit immune activation, virus replication and tumor growth” (priority 2010, published 2012)

Columns and labels:
Assay type in all cases: cell-based
[1] = test system: primary human CD4 T-lymphocytes; test: Cell hyperproliferation in primary T cells (CFSE staining, mitotic index); details: for mitotic index %: % of not treated control (100%), day 10, HU 100 μM; for mitotic index % / anti-proliferative activity (in words): SPPs 10 μM, Imatinib 10 μM; for anti-proliferative activity (in words): compared with HU 100 μM, HU+ddI or untreated control; for Anti-proliferative capacity: class symbol, Table 6
Experimental: We built up an experimental model using primary T cells to study the activity of the compounds on induced hyperproliferation of cells, which is a characteristic of both chronic viral diseases and cancer including HIV and leukemia.
(§1) Unstimulated (quiescent/resting, day 0 to 5) primary human CD4 T-lymphocytes were obtained by magnetic bead separation from healthy, normal donors. After five days in culture, cells were activated with PHA (5 μg/ml) to induce hyperproliferation then, at day 7, IL-2 (20 U/ml) was added (stimulated, day 6 to 10). All available compounds were tested at a concentration of 10 μM. […] At day 10, cells were harvested. Proliferation of T cells, cultured as described above, was studied by staining the cells with carboxyfluorescein diacetate-succinimidyl ester (CFSE) at day 0 (immediately after infection). For data analysis, the mitotic index (M) was used, calculating the sum of mitotic events at each proliferation cycle. To extract a relative number, M was normalized to the total number of cells acquired using the equation M=Σ[(Xn(T)−Xn(T)/2^n)], that gives the number of mitotic events from the experimentally obtained values of the proportion of T cells under each division peak n (Xn) and the total T cells (T). To study the effect of the compounds on apoptosis T cells were cultured as described above and at day 10 cells were stained with Annexin V and 7-AAD, in order to determine the percentage of total apoptotic events.

[2] = test system: primary human CD4 T-lymphocytes; test: Apoptosis in primary CD4 T cells (Annexin V and 7-AAD staining); details: SPPs 10 μM; for apoptosis %: total apoptotic events compared to untreated control, day 10, Imatinib 10 μM, HU 100 μM, ddI 2 μM; for apoptotic effect (in words): compared with HU 100 μM, HU+ddI or untreated control
Experimental: as §1
We determined the capacity of the compounds to affect the percentages of apoptotic events after 10 days of treatment in primary CD4 T cells.

HIV-1 NL 4.3 [3] = test: HIV-1 replication in quiescent CD4 T cells (p24 Ag ELISA); details: for HIV quiescent cells (percentage p24 compared to the untreated control): quiescent CD4 T cells, day 10, HU 100 μM, HU 100 μM+ddI 2 μM; for HIV quiescent cells (percentage p24 compared to the untreated control) / anti-HIV activity in quiescent cells (in words): SPPs 10 μM; for anti-HIV activity in quiescent cells (in words): compared with HU 100 μM, HU+ddI or untreated control; for Antiviral activity in quiescent cells: class symbol, Table 6
Experimental: Unstimulated (quiescent/resting, day 0 to 5) human CD4 T-lymphocytes, obtained by magnetic bead separation from healthy, normal donors, were infected with HIV-1 NL 4.3. After five days in culture, cells were stimulated with PHA (5 μg/ml) to induce proliferation, and then, at day 7, IL-2 (20 U/ml) was added (stimulated, day 6 to 10). All available compounds were tested at a concentration of 10 μM. HU 100 μM and HU 100 μM+ddI 2 μM were also employed as comparators and the negative control was left untreated. At day 10, cells and supernatants were harvested and HIV-1 p24 Ag was measured by ELISA. HIV replication was expressed as percentage p24 compared to the untreated control.

HIV-1 NL 4.3 [4] = test: HIV-1 replication in activated T cells (PBMC, p24 Ag ELISA); details: for anti-HIV activity in activated T cells (in words): SPPs 10 μM, compared with HU 100 μM, HU+ddI or untreated control; for HIV activated cells (% p24 compared to not treated control): activated T cells, 7 days, SPPs and Imatinib 10 μM, HU 100 μM, ddI 2 μM; for Antiviral activity in activated cells: class symbol, Table 6
Experimental: The experimental setup described below allows us to detect direct antiviral activity of a compound.
Human PBMC, obtained from healthy, normal donors, were stimulated for two days with PHA 5 μg/ml. Then cells were infected with HIV-1 NL 4.3, IL-2 was added (20 U/ml), cells were plated (10^5 cells per well in 200 μl) and drug treatment started. […] The control was left untreated. After 7 days of incubation at 37° C. supernatants were harvested and HIV-1 p24 Ag was measured by ELISA.

## CSc1nc(NCc2ccc(F)cc2)c2cnn(CC(Cl)c3ccccc3)c2n1 (stereo not shown) [VS1-017]
[1]
  mitotic index %: 34.5 ± 6.7%
  anti-proliferative activity (in words): poor activity
[2]
  apoptosis %: 130.0 ± 19.3%
HIV-1 NL 4.3 [3]
  HIV quiescent cells (percentage p24 compared to the untreated control): 38.7 ± 44.5%
HIV-1 NL 4.3 [4]
  anti-HIV activity in activated T cells (in words): poor activity
  HIV activated cells (% p24 compared to not treated control): 63.4 ± 31.2%

## CCCNc1nc(SCCN2CCOCC2)nc2c1cnn2CC(Cl)c1ccccc1 (stereo not shown) [VS1-025]
[1]
  mitotic index %: 61.6 ± 12.7%
  anti-proliferative activity (in words): poor activity
[2]
  apoptosis %: 139.3 ± 20.8%
HIV-1 NL 4.3 [3]
  HIV quiescent cells (percentage p24 compared to the untreated control): 23.6 ± 14.5%
HIV-1 NL 4.3 [4]
  anti-HIV activity in activated T cells (in words): poor activity
  HIV activated cells (% p24 compared to not treated control): 74.2 ± 31.7%

## CSc1nc(NCCc2cccc(Cl)c2)c2cnn(CC(Cl)c3ccccc3)c2n1 (stereo not shown) [VS1-028]
[1]
  mitotic index %: 15.2 ± 15.7%
  anti-proliferative activity (in words): good anti-proliferative capacity (superior to 100 μM HU)
  Anti-proliferative capacity: +++ (excellent (+++, greater than 70% activity))
[2]
  apoptotic effect (in words): no more apoptotic than HU
  apoptosis %: 108.6 ± 30.8%
HIV-1 NL 4.3 [3]
  anti-HIV activity in quiescent cells (in words): good anti-HIV activity
  Antiviral activity in quiescent cells: +++ (excellent (+++, greater than 70% activity))
  HIV quiescent cells (percentage p24 compared to the untreated control): 4.4 ± 2.9%
HIV-1 NL 4.3 [4]
  anti-HIV activity in activated T cells (in words): good anti-HIV activity
  HIV activated cells (% p24 compared to not treated control): 25.7 ± 19.8%
  Antiviral activity in activated cells: +++ (excellent (+++, greater than 70% activity))

## CCCCNc1ncnc2c1cnn2CC(Br)c1ccccc1 (stereo not shown) [VS1-006]
[1]
  mitotic index %: 54.0%
  anti-proliferative activity (in words): not effective
HIV-1 NL 4.3 [3]
  HIV quiescent cells (percentage p24 compared to the untreated control): 17.8 ± 2.5%
HIV-1 NL 4.3 [4]
  anti-HIV activity in activated T cells (in words): not effective
  HIV activated cells (% p24 compared to not treated control): 100.5 ± 26.4%

## CCSc1nc(NCc2ccccc2)c2cnn(CC(Cl)c3ccccc3)c2n1 (stereo not shown) [VS1-020]
[1]
  mitotic index %: 21.9 ± 13.0%
  anti-proliferative activity (in words): as anti-proliferative or even better than HU
[2]
  apoptotic effect (in words): proapoptotic
  apoptosis %: 174.7 ± 25.9%
HIV-1 NL 4.3 [3]
  anti-HIV activity in quiescent cells (in words): effective against HIV
  HIV quiescent cells (percentage p24 compared to the untreated control): 9.2 ± 3.7%
HIV-1 NL 4.3 [4]
  anti-HIV activity in activated T cells (in words): effective against HIV
  HIV activated cells (% p24 compared to not treated control): 26.3 ± 6.1%

## C(=Cn1ncc2c(NCc3ccccc3)ncnc21)c1ccccc1 [VS1-013]
[1]
  mitotic index %: 85.6 ± 3.6%
[2]
  apoptosis %: 121.3 ± 14.1%
HIV-1 NL 4.3 [3]
  HIV quiescent cells (percentage p24 compared to the untreated control): 63.3 ± 26.0%
HIV-1 NL 4.3 [4]
  HIV activated cells (% p24 compared to not treated control): 116.4 ± 21.1%

## CSc1nc(NCc2ccccc2Cl)c2cnn(CC(Cl)c3ccccc3)c2n1 (stereo not shown) [VS1-036]
[1]
  mitotic index %: 12.0 ± 6.4%
  anti-proliferative activity (in words): greater or equal to that of 100 μM HU
  Anti-proliferative capacity: +++ (excellent (+++, greater than 70% activity))
[2]
  apoptotic effect (in words): did not induce apoptosis
  apoptosis %: 139.3 ± 41.6%
HIV-1 NL 4.3 [3]
  anti-HIV activity in quiescent cells (in words): effective against HIV
  Antiviral activity in quiescent cells: +++ (excellent (+++, greater than 70% activity))
  HIV quiescent cells (percentage p24 compared to the untreated control): 14.5 ± 4.0%
HIV-1 NL 4.3 [4]
  anti-HIV activity in activated T cells (in words): effective against HIV
  HIV activated cells (% p24 compared to not treated control): 22.1 ± 5.7%
  Antiviral activity in activated cells: +++ (excellent (+++, greater than 70% activity))

## CCSc1nc(NCCc2ccccc2)c2cnn(CC(Cl)c3ccccc3)c2n1 (stereo not shown) [VS1-026]
[1]
  mitotic index %: 24.9 ± 16.6%
  anti-proliferative activity (in words): equal to or a little less anti-proliferative than HU
  Anti-proliferative capacity: +++ (excellent (+++, greater than 70% activity))
[2]
  apoptotic effect (in words): not proapoptotic
  apoptosis %: 135.3 ± 15.7%
HIV-1 NL 4.3 [3]
  anti-HIV activity in quiescent cells (in words): slightly less potent against HIV
  Antiviral activity in quiescent cells: ++ (good (++, 50 to 70% activity))
  HIV quiescent cells (percentage p24 compared to the untreated control): 29.3 ± 6.9%
HIV-1 NL 4.3 [4]
  HIV activated cells (% p24 compared to not treated control): 19.6 ± 12.6%
  Antiviral activity in activated cells: +++ (excellent (+++, greater than 70% activity))
